From ChEMBL document CHEMBL3045112, “In vitro antimicrobial assessment of coumarin-based s-triazinyl piperazines” (2012)
Converted amounts (≈) assume the structure as drawn.

Legend:
Format in all cases: functional
Staphylococcus aureus [1] = assay: Antibacterial activity against Staphylococcus aureus after 24 hr by agar plate method
Bacillus subtilis [2] = assay: Antibacterial activity against Bacillus subtilis after 24 hr by disk diffusion test
Candida albicans [3] = assay: Antifungal activity against Candida albicans after 48 hr by agar plate method
Escherichia coli [4] = assay: Antibacterial activity against Escherichia coli after 24 hr by agar plate method
Escherichia coli [5] = assay: Antibacterial activity against Escherichia coli after 24 hr by disk diffusion test
Bacillus subtilis [6] = assay: Antibacterial activity against Bacillus subtilis after 24 hr by agar plate method
Staphylococcus aureus [7] = assay: Antibacterial activity against Staphylococcus aureus after 24 hr by disk diffusion test
Candida albicans [8] = assay: Antifungal activity against Candida albicans after 48 hr by disk diffusion test
Aspergillus niger [9] = assay: Antifungal activity against Aspergillus niger after 48 hr by disk diffusion test
Aspergillus niger [10] = assay: Antifungal activity against Aspergillus niger after 48 hr by agar plate method
Pseudomonas aeruginosa [11] = assay: Antibacterial activity against Pseudomonas aeruginosa after 24 hr by agar plate method
Pseudomonas aeruginosa [12] = assay: Antibacterial activity against Pseudomonas aeruginosa after 24 hr by disk diffusion test

SMILES	MIC (Staphylococcus aureus [1])	inhibition zone (IZ) (Bacillus subtilis [2])	MIC (Candida albicans [3])	MIC (Escherichia coli [4])	inhibition zone (IZ) (Escherichia coli [5])	MIC (Bacillus subtilis [6])	inhibition zone (IZ) (Staphylococcus aureus [7])	inhibition zone (IZ) (Candida albicans [8])	inhibition zone (IZ) (Aspergillus niger [9])	MIC (Aspergillus niger [10])	MIC (Pseudomonas aeruginosa [11])	inhibition zone (IZ) (Pseudomonas aeruginosa [12])
O=c1cc(Oc2nc(Nc3ccccc3)nc(N3CCN(c4cccc(Cl)c4Cl)CC3)n2)c2ccccc2o1	25 µg/mL (≈ 44.5 µM)	23 mm	12.5 µg/mL (≈ 22.3 µM)	50 µg/mL (≈ 89.1 µM)	21 mm	12.5 µg/mL (≈ 22.3 µM)	22 mm	22 mm	20 mm	12.5 µg/mL (≈ 22.3 µM)	12.5 µg/mL (≈ 22.3 µM)	23 mm
Cc1cc(=O)oc2cc(Oc3nc(Nc4ccccc4)nc(N4CCN(c5cccc(Cl)c5)CC4)n3)ccc12	25 µg/mL (≈ 46.2 µM)	23 mm	12.5 µg/mL (≈ 23.1 µM)	25 µg/mL (≈ 46.2 µM)	22 mm	50 µg/mL (≈ 92.4 µM)	22 mm	25 mm	23 mm	25 µg/mL (≈ 46.2 µM)	12.5 µg/mL (≈ 23.1 µM)	24 mm
Cc1cc(=O)oc2cc(Oc3nc(Nc4ccccc4)nc(N4CCOCC4)n3)ccc12	100 µg/mL (≈ 232 µM)	20 mm	50 µg/mL (≈ 116 µM)	50 µg/mL (≈ 116 µM)	22 mm	100 µg/mL (≈ 232 µM)	20 mm	22 mm	21 mm	50 µg/mL (≈ 116 µM)	100 µg/mL (≈ 232 µM)	17 mm
CCN1CCN(c2nc(Nc3ccccc3)nc(Oc3cc(=O)oc4ccccc34)n2)CC1	100 µg/mL (≈ 225 µM)	20 mm	100 µg/mL (≈ 225 µM)	100 µg/mL (≈ 225 µM)	15 mm	50 µg/mL (≈ 112 µM)	17 mm	19 mm	17 mm	100 µg/mL (≈ 225 µM)	100 µg/mL (≈ 225 µM)	18 mm
O=c1cc(Oc2nc(Nc3ccccc3)nc(N3CCOCC3)n2)c2ccccc2o1	100 µg/mL (≈ 240 µM)	16 mm	100 µg/mL (≈ 240 µM)	25 µg/mL (≈ 59.9 µM)	22 mm	100 µg/mL (≈ 240 µM)	19 mm	19 mm	21 mm	6.25 µg/mL (≈ 15 µM)	100 µg/mL (≈ 240 µM)	17 mm
Cc1cc(=O)oc2cc(Oc3nc(Nc4ccccc4)nc(N4CCCCC4)n3)ccc12	50 µg/mL (≈ 116 µM)	19 mm	50 µg/mL (≈ 116 µM)	25 µg/mL (≈ 58.2 µM)	22 mm	100 µg/mL (≈ 233 µM)	21 mm	22 mm	22 mm	12.5 µg/mL (≈ 29.1 µM)	100 µg/mL (≈ 233 µM)	21 mm
Cc1cc(=O)oc2cc(Oc3nc(Nc4ccccc4)nc(N4CCN(c5ccccn5)CC4)n3)ccc12	12.5 µg/mL (≈ 24.6 µM)	24 mm	25 µg/mL (≈ 49.3 µM)	25 µg/mL (≈ 49.3 µM)	22 mm	12.5 µg/mL (≈ 24.6 µM)	23 mm	23 mm	23 mm	12.5 µg/mL (≈ 24.6 µM)	50 µg/mL (≈ 98.5 µM)	22 mm
O=c1cc(Oc2nc(Nc3ccccc3)nc(N3CCCCC3)n2)c2ccccc2o1	100 µg/mL (≈ 241 µM)	20 mm	100 µg/mL (≈ 241 µM)	25 µg/mL (≈ 60.2 µM)	22 mm	50 µg/mL (≈ 120 µM)	19 mm	20 mm	21 mm	12.5 µg/mL (≈ 30.1 µM)	100 µg/mL (≈ 241 µM)	16 mm
Cc1cc(=O)oc2cc(Oc3nc(Nc4ccccc4)nc(N4CCN(C)CC4)n3)ccc12	100 µg/mL (≈ 225 µM)	21 mm	100 µg/mL (≈ 225 µM)	100 µg/mL (≈ 225 µM)	16 mm	100 µg/mL (≈ 225 µM)	19 mm	20 mm	16 mm	100 µg/mL (≈ 225 µM)	100 µg/mL (≈ 225 µM)	20 mm
Cc1cc(=O)oc2cc(Oc3nc(Nc4ccccc4)nc(N4CCN(c5cccc(Cl)c5Cl)CC4)n3)ccc12	25 µg/mL (≈ 43.4 µM)	25 mm	12.5 µg/mL (≈ 21.7 µM)	12.5 µg/mL (≈ 21.7 µM)	23 mm	12.5 µg/mL (≈ 21.7 µM)	24 mm	25 mm	23 mm	12.5 µg/mL (≈ 21.7 µM)	12.5 µg/mL (≈ 21.7 µM)	24 mm
O=c1cc(Oc2nc(Nc3ccccc3)nc(N3CCN(c4ncccn4)CC3)n2)c2ccccc2o1	12.5 µg/mL (≈ 25.3 µM)	22 mm	12.5 µg/mL (≈ 25.3 µM)	50 µg/mL (≈ 101 µM)	21 mm	12.5 µg/mL (≈ 25.3 µM)	23 mm	22 mm	19 mm	12.5 µg/mL (≈ 25.3 µM)	50 µg/mL (≈ 101 µM)	20 mm
O=c1cc(Oc2nc(Nc3ccccc3)nc(N3CCN(c4ccccc4)CC3)n2)c2ccccc2o1	100 µg/mL (≈ 203 µM)	17 mm	100 µg/mL (≈ 203 µM)	100 µg/mL (≈ 203 µM)	16 mm	100 µg/mL (≈ 203 µM)	17 mm	16 mm	15 mm	100 µg/mL (≈ 203 µM)	100 µg/mL (≈ 203 µM)	15 mm
Cc1cc(=O)oc2cc(Oc3nc(Nc4ccccc4)nc(N4CCN(c5ncccn5)CC4)n3)ccc12	6.25 µg/mL (≈ 12.3 µM)	24 mm	25 µg/mL (≈ 49.2 µM)	25 µg/mL (≈ 49.2 µM)	21 mm	12.5 µg/mL (≈ 24.6 µM)	24 mm	24 mm	22 mm	25 µg/mL (≈ 49.2 µM)	50 µg/mL (≈ 98.3 µM)	23 mm
CC(C)N1CCN(c2nc(Nc3ccccc3)nc(Oc3cc(=O)oc4ccccc34)n2)CC1	100 µg/mL (≈ 218 µM)	18 mm	100 µg/mL (≈ 218 µM)	100 µg/mL (≈ 218 µM)	18 mm	50 µg/mL (≈ 109 µM)	20 mm	17 mm	21 mm	25 µg/mL (≈ 54.5 µM)	100 µg/mL (≈ 218 µM)	18 mm
CC(=O)N1CCN(c2nc(Nc3ccccc3)nc(Oc3ccc4c(C)cc(=O)oc4c3)n2)CC1	25 µg/mL (≈ 52.9 µM)	23 mm	25 µg/mL (≈ 52.9 µM)	12.5 µg/mL (≈ 26.5 µM)	23 mm	50 µg/mL (≈ 106 µM)	22 mm	25 mm	21 mm	50 µg/mL (≈ 106 µM)	25 µg/mL (≈ 52.9 µM)	23 mm
O=c1cc(Oc2nc(Nc3ccccc3)nc(N3CCN(c4ccccn4)CC3)n2)c2ccccc2o1	12.5 µg/mL (≈ 25.3 µM)	21 mm	25 µg/mL (≈ 50.7 µM)	25 µg/mL (≈ 50.7 µM)	20 mm	25 µg/mL (≈ 50.7 µM)	23 mm	21 mm	20 mm	12.5 µg/mL (≈ 25.3 µM)	50 µg/mL (≈ 101 µM)	20 mm
Cc1cc(=O)oc2cc(Oc3nc(Nc4ccccc4)nc(N4CCN(C(C)C)CC4)n3)ccc12	100 µg/mL (≈ 212 µM)	18 mm	100 µg/mL (≈ 212 µM)	100 µg/mL (≈ 212 µM)	18 mm	100 µg/mL (≈ 212 µM)	19 mm	19 mm	19 mm	100 µg/mL (≈ 212 µM)	100 µg/mL (≈ 212 µM)	18 mm
Cc1cc(=O)oc2cc(Oc3nc(Nc4ccccc4)nc(N4CCN(c5ccccc5)CC4)n3)ccc12	100 µg/mL (≈ 197 µM)	20 mm	100 µg/mL (≈ 197 µM)	100 µg/mL (≈ 197 µM)	17 mm	100 µg/mL (≈ 197 µM)	17 mm	18 mm	17 mm	100 µg/mL (≈ 197 µM)	100 µg/mL (≈ 197 µM)	15 mm
CCN1CCN(c2nc(Nc3ccccc3)nc(Oc3ccc4c(C)cc(=O)oc4c3)n2)CC1	100 µg/mL (≈ 218 µM)	21 mm	100 µg/mL (≈ 218 µM)	100 µg/mL (≈ 218 µM)	16 mm	50 µg/mL (≈ 109 µM)	17 mm	20 mm	20 mm	100 µg/mL (≈ 218 µM)	100 µg/mL (≈ 218 µM)	21 mm
CC(=O)N1CCN(c2nc(Nc3ccccc3)nc(Oc3cc(=O)oc4ccccc34)n2)CC1	25 µg/mL (≈ 54.5 µM)	20 mm	50 µg/mL (≈ 109 µM)	12.5 µg/mL (≈ 27.3 µM)	22 mm	100 µg/mL (≈ 218 µM)	23 mm	20 mm	18 mm	100 µg/mL (≈ 218 µM)	50 µg/mL (≈ 109 µM)	22 mm
CN1CCN(c2nc(Nc3ccccc3)nc(Oc3cc(=O)oc4ccccc34)n2)CC1	100 µg/mL (≈ 232 µM)	20 mm	100 µg/mL (≈ 232 µM)	100 µg/mL (≈ 232 µM)	16 mm	100 µg/mL (≈ 232 µM)	16 mm	17 mm	14 mm	100 µg/mL (≈ 232 µM)	100 µg/mL (≈ 232 µM)	17 mm
O=c1cc(Oc2nc(Nc3ccccc3)nc(N3CCN(c4cccc(Cl)c4)CC3)n2)c2ccccc2o1	50 µg/mL (≈ 94.9 µM)	21 mm	12.5 µg/mL (≈ 23.7 µM)	25 µg/mL (≈ 47.4 µM)	22 mm	25 µg/mL (≈ 47.4 µM)	21 mm	23 mm	20 mm	50 µg/mL (≈ 94.9 µM)	25 µg/mL (≈ 47.4 µM)	23 mm
